Measurements taken from US10675360B2 (MADRIGAL PHARMACEUTICALS, INC., priority 2014, dated 2020).

Assay: Stability in mouse plasma
Type: in vitro ADME
Settings: 1 h
Method: SDC-TRAP-0022 and SDC-TRAP-0028 were incubated in human and mouse plasma for 2 h at 37° C. and assayed for integrity at 0.25, 0.5, 1 and 2 h. The values reported below are the remaining of the parent compound at the end of the 2 h incubation period.
This solution was used to precipitate all plasma samples in the study. 200 μL was pipetted into a 96 deepwell plate over dry ice. 10 μL of 1 mM stock in DMSO was added to a 1.5 mL microfuge tube, then 990 μL of plasma. Samples were mixed by vortex, then 50 μL of each sample was added in triplicate to a 96-well plate containing internal standard solution. This was designated the 0 hour time point sample. 250 μL of the remaining plasma sample was added to each of four 96 deepwell plates—one per time point. Samples were incubated at 37° C. with gentle shaking for 0.25, 0.5, and 1 hour. After each time point, one plate of each sample was removed from the shaker and placed on wet ice for approximately 2 minutes. 50 μL plasma aliquots (in triplicate) were added to the deepwell plate containing internal standard solution. After the last time point was extracted, the 96 deepwell plate was vortexed, then centrifuged at 2-8° C. 150 μL of supernatant was collected and 25 μL of water was added. Samples were mixed and analyzed by LC-MS/MS.
The stability of seven SDC-TRAP types in mouse plasma was measured as follows. 990 μL mouse plasma aliquots from a common stock were spiked with 10 μL of 1 mM stock of one of seven SDC-TRAP samples identified in the table below. Each sample was mixed and divided into 250 μL aliquots, each representing time points 0, 15 minutes, 30 minutes or 1 hour. At the prescribed time point, 3×50 μL samples were each mixed with 200 μL of methanol containing internal standard and held on dry ice until all time point samples were extracted. The samples collectively were vortex mixed for 1.5 minutes at 1500 rpm, then centrifuged at 4400 rpm for 10 minutes at 8° C.

## CCNC(=O)c1nnc(-c2cc(C(C)C)c(O)cc2O)n1-c1ccc(CN2CCC(C(=O)N[C@H](C(=O)Nc3cccc4c3CN(C3CCC(=O)NC3=O)C4=O)C(C)C)CC2)cc1 (stereo partly drawn) [SDC-TRAP-0163, 1-(4-(3-(2,4-dihydroxy-5-isopropylphenyl)-5-(ethylcarbamoyl)-4H-1,2,4-triazol-4-yl)benzyl)-N-((2S)-1-((2-(2,6-dioxopiperidin-3-yl)-1-oxoisoindolin-4-yl)amino)-3-methyl-1-oxobutan-2-yl)piperidine-4-carboxamide]
mouse, plasma, 10 μM
  % Remaining: 93.0%

## CCNC(=O)c1nnc(-c2cc(C(C)C)c(O)cc2O)n1-c1ccc(CN2CCC(C(=O)N3CCN(C(=O)Oc4ccc5nc6c(c(CC)c5c4)Cn4c-6cc5c(c4=O)COC(=O)C5(O)CC)C(C)C3)CC2)cc1 (stereo not shown) [SDC-TRAP-0185, 4,11-diethyl-4-hydroxy-3,14-dioxo-3,4,12,14-tetrahydro-1H-pyrano[3′,4′:6,7]indolizino[1,2-b]quinolin-9-yl 4-(1-(4-(3-(2,4-dihydroxy-5-isopropylphenyl)-5-(ethylcarbamoyl)-4H-1,2,4-triazol-4-yl)benzyl)piperidine-4-carbonyl)-2-methylpiperazine-1-carboxylate]
Mouse plasma, 37° C.
  % Remaining: 68.1%

## CCNC(=O)c1nnc(-c2cc(C(C)C)c(O)cc2O)n1-c1ccc(CN2CCC(C(=O)N3CCC[C@H]3C(=O)Nc3cccc4c3CN(C3CCC(=O)NC3=O)C4=O)CC2)cc1 (stereo partly drawn) [SDC-TRAP-0164, 5-(2,4-dihydroxy-5-isopropylphenyl)-4-(4-((4-((2S)-2-((2-(2,6-dioxopiperidin-3-yl)-1-oxoisoindolin-4-yl)carbamoyl)pyrrolidine-1-carbonyl)piperidin-1-yl)methyl)phenyl)-N-ethyl-4H-1,2,4-triazole-3-carboxamide]
mouse, plasma, 10 μM
  % Remaining: 98.0%

## CCc1c2c(nc3ccc(OC(=O)N(C)CCCCN4CCN(Cc5ccc(-n6c(O)nnc6-c6cc(C(C)C)c(O)cc6O)cc5)CC4)cc13)-c1cc3c(c(=O)n1C2)COC(=O)C3(O)CC (stereo not shown) [SDC-TRAP-0044, 4,11-diethyl-4-hydroxy-3,14-dioxo-3,4,12,14-tetrahydro-1H-pyrano[3′,4′:6,7]indolizino[1,2-b]quinolin-9-yl (4-(4-(4-(3-(2,4-dihydroxy-5-isopropylphenyl)-5-hydroxy-4H-1,2,4-triazol-4-yl)benzyl)piperazin-1-yl)butyl)(methyl)carbamate]
Mouse plasma, 37° C.
  % Remaining: 61%

## CCNC(=O)c1nnc(-c2cc(C(C)C)c(O)cc2O)n1-c1ccc(C(=O)N2CCN(C(=O)COC(=O)OC3(CC)C(=O)OCc4c3cc3n(c4=O)Cc4c-3nc3ccc(O)cc3c4CC)CC2)cc1 (stereo not shown) [SDC-TRAP-0202, 4,11-diethyl-9-hydroxy-3,14-dioxo-3,4,12,14-tetrahydro-1H-pyrano[3′,4′:6,7]indolizino[1,2-b]quinolin-4-yl (2-(4-(4-(3-(2,4-dihydroxy-5-isopropylphenyl)-5-(ethylcarbamoyl)-4H-1,2,4-triazol-4-yl)benzoyl)piperazin-1-yl)-2-oxoethyl) carbonate]
Mouse plasma, 37° C.
  % Remaining: 21.2%

## CCNC(=O)c1nnc(-c2cc(C(C)C)c(O)cc2O)n1-c1ccc(CN2CCC(C(=O)N(C)CCCOC(=O)Nc3cccc4c3CN(C3CCC(=O)NC3=O)C4=O)CC2)cc1 (stereo not shown) [SDC-TRAP-0231, 3-(1-(4-(3-(2,4-dihydroxy-5-isopropylphenyl)-5-(ethylcarbamoyl)-4H-1,2,4-triazol-4-yl)benzyl)-N-methylpiperidine-4-carboxamido)propyl (2-(2,6-dioxopiperidin-3-yl)-1-oxoisoindolin-4-yl)carbamate]
mouse, plasma, 10 μM
  % Remaining: 98.3%

## CCNC(=O)c1nnc(-c2cc(C(C)C)c(O)cc2O)n1-c1ccc(OC2CCN(C(=O)C3CCN(C(=O)Oc4ccc5nc6c(c(CC)c5c4)Cn4c-6cc5c(c4=O)COC(=O)[C@]5(O)CC)C(C)C3)CC2)cc1 (stereo partly drawn) [SDC-TRAP-0213, (S)-4,11-diethyl-4-hydroxy-3,14-dioxo-3,4,12,14-tetrahydro-1H-pyrano[3′,4′:6,7]indolizino[1,2-b]quinolin-9-yl 4-(4-(4-(3-(2,4-dihydroxy-5-isopropylphenyl)-5-(ethylcarbamoyl)-4H-1,2,4-triazol-4-yl)phenoxy)piperidine-1-carbonyl)-2-methylpiperidine-1-carboxylate]
Mouse plasma, 37° C.
  % Remaining: 74.7%

## CCNC(=O)c1nnc(-c2cc(C(C)C)c(O)cc2O)n1-c1ccc(Oc2ccc(OC(=O)N(C)CCOC(=O)Nc3cccc4c3CN(C3CCC(=O)NC3=O)C4=O)cc2)cc1 (stereo not shown)
mouse, plasma, 10 μM
  % Remaining: 51.2%

## CCNC(=O)c1nnc(-c2cc(C(C)C)c(O)cc2O)n1-c1ccc(OC2CCN(C(=O)C3CCCCN3C(=O)Oc3ccc4nc5c(c(CC)c4c3)Cn3c-5cc4c(c3=O)COC(=O)[C@]4(O)CC)CC2)cc1 (stereo partly drawn) [SDC-TRAP-0216, (S)-4,11-diethyl-4-hydroxy-3,14-dioxo-3,4,12,14-tetrahydro-1H-pyrano[3′,4′:6,7]indolizino[1,2-b]quinolin-9-yl 2-(4-(4-(3-(2,4-dihydroxy-5-isopropylphenyl)-5-(ethylcarbamoyl)-4H-1,2,4-triazol-4-yl)phenoxy)piperidine-1-carbonyl)piperidine-1-carboxylate]
Mouse plasma, 37° C.
  % Remaining: 67.7%

## CC(C)c1cc(-c2nnc(O)n2-c2ccc(CN3CCN(C(=O)Oc4ccc(COC(=O)Nc5cccc6c5CN(C5CCC(=O)NC5=O)C6=O)cc4)CC3)c(F)c2)c(O)cc1O (stereo not shown) [SDC-TRAP-0171, 4-((((2-(2,6-dioxopiperidin-3-yl)-1-oxoisoindolin-4-yl)carbamoyl)oxy)methyl)phenyl-4-(4-(3-(2,4-dihydroxy-5-isopropylphenyl)-5-hydroxy-4H-1,2,4-triazol-4-yl)-2-fluorobenzyl)piperazine-1-carboxylate]
mouse, plasma, 10 μM
  % Remaining: 17.7%

## CCc1c2c(nc3ccc(O)cc13)-c1cc3c(c(=O)n1C2)COC(=O)C3(CC)OC(=O)CN1CCC(Cc2ccc(-n3c(O)nnc3-c3cc(C(C)C)c(O)cc3O)cc2)CC1 (stereo not shown) [SDC-TRAP-0071, 4,11-diethyl-9-hydroxy-3,14-dioxo-3,4,12,14-tetrahydro-1H-pyrano[3′,4′:6,7]indolizino[1,2-b]quinolin-4-yl 2-(4-(4-(3-(2,4-dihydroxy-5-isopropylphenyl)-5-hydroxy-4H-1,2,4-triazol-4-yl)benzyl)piperidin-1-yl)acetate]
Mouse plasma, 37° C.
  % Remaining: 102%

## CCc1c2c(nc3ccc(OC(=O)N4CCC(Cn5ccc6cc(-n7c(O)nnc7-c7cc(C(C)C)c(O)cc7O)ccc65)CC4)cc13)-c1cc3c(c(=O)n1C2)COC(=O)C3(O)CC (stereo not shown) [SDC-TRAP-0186]
Mouse plasma, 37° C.
  % Remaining: 57.9%

## CCNC(=O)c1nnc(-c2cc(C(C)C)c(O)cc2O)n1-c1ccc(CN2CCC(C(=O)N3CCC(N(C)C(=O)Oc4ccc5nc6c(c(CC)c5c4)Cn4c-6cc5c(c4=O)COC(=O)C5(O)CC)CC3)CC2)cc1 (stereo not shown) [SDC-TRAP-0172, 4,11-diethyl-4-hydroxy-3,14-dioxo-3,4,12,14-tetrahydro-1H-pyrano[3′,4′:6,7]indolizino[1,2-b]quinolin-9-yl (1-(1-(4-(3-(2,4-dihydroxy-5-isopropylphenyl)-5-(ethylcarbamoyl)-4H-1,2,4-triazol-4-yl)benzyl)piperidine-4-carbonyl)piperidin-4-yl)(methyl)carbamate]
Mouse plasma, 37° C.
  % Remaining: 74.7%

## CCNC(=O)c1nnc(-c2cc(C(C)C)c(O)cc2O)n1-c1ccc(Oc2ccc(C(=O)N3CCC(OC(=O)OC4(CC)C(=O)OCc5c4cc4n(c5=O)Cc5c-4nc4ccc(O)cc4c5CC)CC3)cc2)cc1 (stereo not shown) [SDC-TRAP-0203, 4,11-Diethyl-9-hydroxy-3,14-dioxo-3,4,12,14-tetrahydro-1H-pyrano[3′,4′:6,7]indolizino[1,2-b]quinolin-4-yl (1-(4-(4-(3-(2,4-dihydroxy-5-isopropylphenyl)-5-(ethylcarbamoyl)-4H-1,2,4-triazol-4-yl)phenoxy)benzoyl)piperidin-4-yl) carbonate]
Mouse plasma, 37° C.
  % Remaining: 71.2%

## CCc1c2c(nc3ccc(O)cc13)-c1cc3c(c(=O)n1C2)COC(=O)C3(CC)OC(=O)CN1CCN(c2ccc(-n3c(O)nnc3-c3cc(C(C)C)c(O)cc3O)cc2)CC1 (stereo not shown) [SDC-TRAP-0056, 4,11-diethyl-9-hydroxy-3,14-dioxo-3,4,12,14-tetrahydro-1H-pyrano[3′,4′: 6,7]indolizino[1,2-b]quinolin-4-yl 2-(4-(4-(3-(2,4-dihydroxy-5-isopropylphenyl)-5-hydroxy-4H-1,2,4-triazol-4-yl)phenyl)piperazin-1-yl)acetate]
Mouse plasma, 37° C.
  % Remaining: 78%

## CC(C)c1cc(-c2nnc(O)n2-c2ccc(CC(=O)N(C)CCOC(=O)Nc3cccc4c3CN(C3CCC(=O)NC3=O)C4=O)cc2)c(O)cc1O (stereo not shown) [SDC-TRAP-0127, 2-(2-(4-(3-(2,4-dihydroxy-5-isopropylphenyl)-5-hydroxy-4H-1,2,4-triazol-4-yl)phenyl)-N-methylacetamido)ethyl(2-(2,6-dioxopiperidin-3-yl)-1-oxoisoindolin-4-yl)carbamate]
mouse, plasma, 10 μM
  % Remaining: 87.3%

## CCc1c2c(nc3ccc(O)cc13)-c1cc3c(c(=O)n1C2)COC(=O)C3(CC)OC(=O)CCC(=O)N1CCC(Cc2ccc(-n3c(O)nnc3-c3cc(C(C)C)c(O)cc3O)cc2)CC1 (stereo not shown) [SDC-TRAP-0042, 4,11-diethyl-9-hydroxy-3,14-dioxo-3,4,12,14-tetrahydro-1H-pyrano[3′,4′:6,7]indolizino[1,2-b]quinolin-4-yl 4-(4-(4-(3-(2,4-dihydroxy-5-isopropylphenyl)-5-hydroxy-4H-1,2,4-triazol-4-yl)benzyl)piperidin-1-yl)-4-oxobutanoate]
Mouse plasma, 37° C.
  % Remaining: 74%

## CCc1c2c(nc3ccc(O)cc13)-c1cc3c(c(=O)n1C2)COC(=O)[C@@]3(CC)OC(=O)N1CCC(CCn2ccc3cc(-n4c(O)nnc4-c4cc(C(C)C)c(O)cc4O)ccc32)CC1 [SDC-TRAP-0064, (S)-4,11-diethyl-9-hydroxy-3,14-dioxo-3,4,12,14-tetrahydro-1H-pyrano[3′,4′:6,7]indolizino[1,2-b]quinolin-4-yl 4-(2-(5-(3-(2,4-dihydroxy-5-isopropylphenyl)-5-hydroxy-4H-1,2,4-triazol-4-yl)-1H-indol-1-yl)ethyl)piperidine-1-carboxylate]
Mouse plasma, 37° C.
  % Remaining: 91.5%

## CCc1c2c(nc3ccc(O)cc13)-c1cc3c(c(=O)n1C2)COC(=O)[C@@]3(CC)OC(=O)N1CCC(CCc2ccc(-n3c(O)nnc3-c3cc(C(C)C)c(O)cc3O)cc2)CC1 [SDC-TRAP-0104, (S)-4,11-diethyl-9-hydroxy-3,14-dioxo-3,4,12,14-tetrahydro-1H-pyrano[3′,4′:6,7]indolizino[1,2-b]quinolin-4-yl 4-(4-(3-(2,4-dihydroxy-5-isopropylphenyl)-5-hydroxy-4H-1,2,4-triazol-4-yl)phenethyl)piperidine-1-carboxylate]
Mouse plasma, 37° C.
  % Remaining: 95.5%
